According to US20030125287A1, “Antisense oligonucleotides and methods to induce tumor cell death” (Hybridon, Inc., priority 2001, published 2003):
Entries after “also recorded” stand apart in the source; their conditions may differ. Oligonucleotides are written 5' to 3', each unit as a sugar letter and its base; * is a phosphorothioate linkage, no mark a phosphodiester; rarer units and linkages stand in square brackets, end groups in braces. Plain capitals give the bases only. d = 2'-deoxy (DNA)

Legend:
Assay type in all cases: cell-based, human
survivin = experiment: Western blot of survivin protein in antisense oligonucleotide-treated MSN cells; details: for effect on survivin protein levels / percentage of survivin protein over β-tubulin relative to lipofectin: lipofectin; for effect on survivin protein levels: 48 hours; for decrease in survivin protein levels relative to lipofectin-treated control, normalized to β-tubulin / percentage of survivin protein over β-tubulin relative to lipofectin: 400 nM, 48 hours (FIG. 3A)
Method: Six survivin (900-906) antisense oligonucleotides were administered at 400 nM to MSN cells in the presence of lipofectin for 48 hours. Each lane has 100 μg of protein. The blots were cut at 32.9 kD and the bottom incubated with the survivin polyclonal antibody (1:500), while the top was incubated with β-tubulin.
Since survivin antisense oligonucleotide 903 decreased survivin protein levels by 76%, the dose dependency of 903 on survivin protein levels was further studied. As expected, mismatched oligonucleotides had no effect on the relative abundance of survivin. […] In the presence of lipofectin, survivin antisense oligonucleotide 903 was administered to MSN cells for 48 hours at 50 nM to 200 nM. Total protein (100 μg) was loaded/lane.
Survivin antisense oligonucleotide 904 decreased survivin protein levels by 46% and 60% while survivin levels were unchanged in cells incubated with the mismatched oligonucleotide 1132. MSN cells were treated with lipofectin, survivin antisense oligonucleotide 904 or 908 at 400 nM and 600 nM, or mismatched oligonucleotide 1132 at 400 nM concentrations. Total protein (100 μg) was separated by SDS polyacrylamide gel electrophoresis and transferred to a nitrocellulose support. The blots were cut at 32.9 kD and the bottom blots incubated with the survivin polyclonal antibody (1:500), while the top blots were incubated with tubulin.
The antisense oligonucleotides were synthesized on solid support with an automated DNA synthesizer using β-cyanoethylphosphoramidite chemistry. In order to prevent rapid degradation of the antisense oligonucleotides by cellular nucleases, oxidation was carried out with Becauge sulfurizing agent to obtain phosphorothioate backbone modified oligonucleotides. After their synthesis, the oligonucleotides were released from the solid support, deprotected, purified by reverse-phase HPLC, desalted, filtered and lyophilized. The purity and sequence integrity of oligonucleotides was ascertained by capillary gel electrophoresis and MALDI-TOF mass spectral analysis and the concentrations measured at […]. Cells were grown in 100 mm dishes and oligonucleotide treatment was performed on subconfluent cultures in the presence of Lipofectin (GIBCO) according to the manufacturer. Forty-eight hours following treatment, total protein homogenates were isolated.
Ten micrograms of the fusion protein was incubated with the survivin antibody (1:500) at 4° C. for 2 hours to overnight prior to immunoblotting. […] Blots were cut at 32.9 kD, and the bottom part of the blots were incubated with the survivin antibody overnight at 4° C. and visualized by enhanced chemiluminescence (Enhanced Chemiluminescence, Amersham, Arlington Heights, Ill.) as previously described (Sharma et al. Cell. Motil. Cytoskeleton 27:234-247).

[1] = test system: apoptosis-inducing factor (AIF); experiment: AIF immunostaining and DAPI double-labeling of MSN cells; details: for AIF localization: 600 nM (FIGS. 9H-9K)
Method: To examine whether down-regulation of survivin induces AIF nuclear translocation, AIF and DAPI double-labeling was performed on MSN cells treated with lipofectin (FIG. 9H), or 600 nM survivin antisense oligonucleotide 904 (FIG. 9I), mismatch oligonucleotide 1132 (FIG. 9J), or survivin antisense oligonucleotide 906 (FIG. 9K).
Lipofectin, mismatch oligonucleotide 1132 or survivin antisense oligonucleotide-treated MSN cells were fixed and permeabilized as described for PI staining, and blocked for 1 h at room temperature with 10% normal goat serum in 5% non-fat, dry milk in 1×TBS. […] Omission of the primary antibody confirmed that the immunostaining was specific. Cells were counterstained with the DNA-specific dye DAPI (1:1000 of a 1 mg/ml stock; 15 min at room temperature). Cells were examined with an Olympus 1×70 inverted microscope. Fluorescent images were collected using a 12-bit Photometrics cooled CCD camera. For each treatment, 15 random, 40×objective fields consisting of about 600 cells were examined. TRITC (red) and DAPI (blue) stained cells were scored as having AIF staining either in the mitochondria or the nucleus relative to the total number examined. In parallel, the DAPI stained nuclei were also scored as normal, condensed, or abnormal nuclei. Experiments were performed in duplicate.

MSN cells = experiment: Trypan blue assay (cell death) in MSN cells; details: for percentage of cells Trypan blue positive: MSN cells
Method: The role of survivin as an inhibitor of apoptosis and as a survival protein for tumors was investigated by examining whether the down-regulation of survivin was sufficient to induce cell death in MSN cells. Following transfection with lipofectin, different concentrations of survivin antisense oligonucleotide 904 (200 nM, 400 nM, 600 nM), or the mismatched oligonucleotide 1132 (400 nM and 600 nM), the number of Trypan blue positive cells (only dead cells are stained by the Trypan blue stain) were counted 48 hours after treatment. The number of dead cells was assessed relative to the lipofectin-treated control cells. In the presence of 200 nM, 400 nM, and 600 nM concentrations of antisense oligonucleotide 904, the percentage of cells that were Trypan blue positive were 52%, 59% and 62%, respectively (FIG. 4A). The mismatched oligonucleotide 1132 (400 nM and 600 nM) was similar to the lipofectin control treatment, wherein 23% (400 nM) and 22% (600 nM) of the cells were Trypan blue-positive. About 6% of the cells in the untreated control were Trypan blue positive.
In another experiment, following transfection with lipofectin, mismatched oligonucleotide 1132 (600 nM), or survivin antisense oligonucleotide 904 or 906 (600 nM), the numbers of Trypan blue positive cells (dead cells) were counted 48 h post-treatment. In the presence of 600 nM survivin antisense oligonucleotide 904 and 906, the percentages of cells that were Trypan blue positive were 73% and 81%, respectively (FIG. 4B). Upon treatment with lipofectin or the mismatched oligonucleotide 1132, only 7-11% of the cells were Trypan blue positive.
Further experiments were conducted to examine whether survivin antisense oligonucleotide-induced cell death could be blocked by the broad-spectrum caspase inhibitor zVAD-fmk. MSN cells were treated with lipofectin or 600 nM survivin antisense oligonucleotide 904, 906, or mismatch oligonucleotide 1132 alone, or co-treated with 20 μM zVAD-fmk for 48 h, and stained with 0.04% Trypan blue.
Cells were harvested 48 hours after survivin antisense treatment, stained with 0.04% Trypan blue (GIBCO), and counted on a hemocytometer. The number of Trypan blue positive cells relative to the total number of cells in each field was obtained and the data were expressed as a percentage of dead cells relative to the total cell number. Individual experiments were performed in triplicate. MSN cell studies were performed three times, while studies in TC620 cells were performed once.

[2] = 600 nM co-treated with 20 μM zVAD-fmk, 48 h (FIG. 4B)

Substance | effect on survivin protein levels (survivin) | percentage of cells with normal-appearing nuclei by DAPI staining ([1]; 600 nM) [%] | percentage of cells with nuclear localization / translocation of AIF ([1]; 600 nM) | AIF localization [1] | percentage of cells Trypan blue positive (MSN cells; 400 nM, 48 hours (FIG. 4A)) [%] | percentage of cells Trypan blue positive (MSN cells; 600 nM alone, 48 h (FIG. 4B)) | percentage of cells Trypan blue positive (MSN cells; 600 nM, 48 hours (FIG. 4A)) [%] | decrease in survivin protein levels relative to lipofectin-treated control, normalized to β-tubulin (survivin) [%] | percentage of survivin protein over β-tubulin relative to lipofectin (survivin) [%] | percentage of cells Trypan blue positive (MSN cells; [2]) [%] | decrease in survivin protein levels (survivin; 400 nM (FIG. 4C)) [%] | decrease in survivin protein levels (survivin; 600 nM (FIG. 4C)) [%] | cell death, Trypan blue positive cells (MSN cells; MSN cells (FIG. 4A)) | percentage of cells Trypan blue positive (MSN cells; 200 nM, 48 hours (FIG. 4A)) [%]
d(GCACCTAGTCTCCCTGCACC) (DNA, all phosphorothioate, methylation of C not given here) [Oligo 1132, mismatched phosphorothioate control oligonucleotide, not complementary to survivin mRNA, reference compound] | had no effect; also recorded: did not alter survivin protein levels | 95 | 4-8% | robust AIF staining in the cytosol | 23 | 7-11% | 22 |  |  |  |  |  |  | 
d(GCTTCCCAGTCACATCCTGT) (antisense dG*dC*dT*dT*dC*dC*dC*dA*dG*dT*dC*dA*dC*dA*dT*dC*dC*dT*dG*dT) [Oligo 906, 20-mer phosphorothioate survivin antisense oligonucleotide, complementary to survivin mRNA 11897-11916] |  |  |  | nuclear translocation of AIF |  | 81% |  | 73 | 26.9 | 74 |  |  |  | 
d(TCTTGGCTCTTTCTCTGTCC) (antisense dT*dC*dT*dT*dG*dG*dC*dT*dC*dT*dT*dT*dC*dT*dC*dT*dG*dT*dC*dC) [Oligo 904, 20-mer phosphorothioate survivin antisense oligonucleotide, complementary to survivin mRNA 5248-5267] | effective in reducing survivin protein levels in a concentration-dependent manner |  |  | nuclear translocation of AIF | 59 | 73% | 62 | 64 | 35.7 | 73 | 46 | 60 | dose-dependent increase in cell death | 52
